# Test results from PubChem BioAssay AID1259333 (Broad Institute, 2017).
# Activity calls are given as the source filed them. The rule behind the calls is not given here; tested in parental BL2 cells. Numbered stars: 1 amine (or outer) side, 2 acyl side, 3 side chain; on linkers, the order of the positions; unused ones are H or OH. Bridge positions count the residues as written; N and C are the ends. Square brackets hold non-standard residues; d marks the D form. Peptide text beside a SMILES is read from it. I, II: the chains in the order shown. Actinocin(9to1) = Cc1c2oc3c(C)ccc(C(=O)[*:1])c3nc-2c(C(=O)[*:2])c(N)c1=O; NMeV = CN[CH](C(=O)O)C(C)C; Sar = CNCC(=O)O
# Tested on: cytotoxicity, CellTiter-Glo ATP luminescence
# Assay: cell cytotoxicity, dose response, cytotoxicity control, CellTiter-Glo (AID 1259333)
row,Compound,AC50
1,CN(C)C(=S)SSC(=S)N(C)C,1.36 µM
2,COc1ccc(C[C@H]2NC[C@H](O)[C@H]2OC(C)=O)cc1,2.75 µM
3,COc1ccc(CC2C(=O)NC(C)C(=O)N(C)C3C(=O)N(C)C(Cc4ccc(O)c(c4)Oc4ccc(cc4)C3O)C(=O)NC(C)C(=O)NC(C)C(=O)N2C)cc1 (stereo unspecified),8.5 µM
4,CSc1ccc2c(c1)N(CCC1CCCCN1C)c1ccccc1S2 (stereo unspecified),8.67 µM
5,C[C@H](CO)N1C[C@H](C)[C@H](CN(C)CC2CCCCC2)OCCCC[C@H](C)Oc2ccc(NC(=O)Nc3ccc(C(F)(F)F)cc3)cc2C1=O,> 20 µM (inactive)
6,Cc1ccc(-c2cc(C(=O)N3CC(C)OC(C)C3)c3ccccc3n2)o1 (stereo unspecified),> 20 µM (inactive)
7,[O-]C(=C(C(=S)Nc1cccc2ccccc12)[n+]1ccccc1)c1ccc2c(c1)OCCO2,> 7 µM (inactive)
8,C[C@@H]1O[C@@H](O[C@H]2C[C@@H](O)[C@]3(CO)C4C(CC[C@]3(O)C2)[C@@]2(O)CC[C@H](C3=CC(=O)OC3)[C@@]2(C)C[C@H]4O)[C@H](O)[C@H](O)[C@H]1O (stereo partly specified),0.379 µM
9,N#C[C@H]1[C@H](c2ccc(C#Cc3ccccc3F)cc2)[C@@H](CO)N1C(=O)c1cccnc1,11.2 µM
10,COc1ccc(C#Cc2ccc([C@H]3[C@@H](CO)N4CCCCN(S(=O)(=O)c5cn(C)cn5)C[C@H]34)cc2)cc1,10.8 µM
11,Cc1noc(C)c1S(=O)(=O)Nc1ccc2c(c1)CC(=O)N([C@@H](C)CO)C[C@@H](C)[C@@H](CN(C)Cc1ccc(Oc3ccccc3)cc1)O2,> 20 µM (inactive)
12,CC[C@@]1(O)C(=O)OCc2c1cc1n(c2=O)Cc2cc3ccccc3nc2-1,9.41 µM
13,CCCCCCCCCCCCCCCC[n+]1ccccc1,1.55 µM
14,CC(C)(C)c1cc(C=C(C#N)C#N)cc(C(C)(C)C)c1O,> 20 µM (inactive)
15,Nc1cccc2nc3ccccc3cc12,1.96 µM
16,O=C(C1CC1)N1C[C@@H]2N[C@H](C1)[C@@H]2c1ccc(-c2ccncc2)cc1,> 20 µM (inactive)
17,CC1CC(C)C(=O)C(C(O)CC2CC(=O)NC(=O)C2)C1 (stereo unspecified),> 20 µM (inactive)
18,C=C1C(=O)C23C(O)C1CCC2C12CCCC(C)(COC(C)=O)C1C(O)C3(O)OC2 (stereo unspecified),5.52 µM
19,C[C@H](CO)N1C[C@H](C)[C@@H](CN(C)Cc2ccc(Oc3ccccc3)cc2)Oc2c(NC(=O)CCC(F)(F)F)cccc2C1=O,6.84 µM
20,O=C(Nc1ccccc1)N1CC(=O)N2[C@H](CO)[C@@H](c3ccc(C#CC4CCCCC4)cc3)[C@H]2C1,> 20 µM (inactive)
21,COc1cccc(NC(=O)N2CC(=O)N3[C@H](CO)[C@@H](c4ccc(C#CCC5CCCC5)cc4)[C@H]3C2)c1,4.13 µM
22,c1ccc(-c2nc(-c3ccccn3)no2)cc1,11.5 µM
23,O=S(=O)(c1cccc2cnccc12)N1CCNCC1,7.09 µM
24,COc1ccc(CN(CCC(c2ccccc2)c2ccc(OC(C)C)cc2)C(=O)CCl)cc1OC (stereo unspecified),2.54 µM
25,C[C@H]1O[C@@H](O[C@H]2[C@@H](O)C[C@H](O[C@H]3[C@@H](O)C[C@H](O[C@H]4CC[C@]5(C)C6CC[C@]7(C)[C@@H](C8=CC(=O)OC8)CC[C@]7(O)C6CC[C@@H]5C4)O[C@@H]3C)O[C@@H]2C)C[C@H](O)[C@@H]1O (stereo partly specified),2.2 µM
26,C[C@H](CO)N1C[C@H](C)[C@@H](CN(C)Cc2ccc(Oc3ccccc3)cc2)OCc2ccccc2-c2ccccc2C1=O,> 20 µM (inactive)

row,Compound,AC50
1,O=C1Cc2c([nH]c3ccc(Br)cc23)-c2ccccc2N1,10.2 µM
2,C[C@@H]1CN([C@H](C)CO)C(=O)c2ccccc2-c2ccccc2CO[C@@H]1CN(C)Cc1ccccc1C(F)(F)F,6.93 µM
3,COc1cccc(-c2cc(=O)c3cc(OC)ccc3o2)c1,10.3 µM
4,Cc1c2oc3c(C)ccc(C(=O)OC(C)C4NC(=O)C(C(C)C)N(C)C(=O)CN(C)C(=O)C5CCCN5C(=O)C(C(C)C)NC4=O)c3nc-2c(C(=O)OC(C)C2NC(=O)C(C(C)C)N(C)C(=O)CN(C)C(=O)C3CCCN3C(=O)C(C(C)C)NC2=O)c(N)c1=O (stereo unspecified) (I: cyclo([Sar][NMeV]TVP) / II: cyclo([Sar][NMeV]TVP); linker I:3-II:3 via Actinocin(9to1); configuration not given here),> 20 µM (inactive)
5,CC(C)OC(=O)c1cn(Cc2c(F)cccc2F)c2sc(-c3ccc(NC(=O)C(C)C)cc3)c(CN(C)Cc3ccccc3)c2c1=O,> 20 µM (inactive)
6,NS(=O)(=O)c1cc2c(cc1C(F)(F)F)NC(Cc1ccccc1)NS2(=O)=O (stereo unspecified),> 20 µM (inactive)
7,COc1c(O)cc2oc3cc(O)c(CC=C(C)C)c(O)c3c(=O)c2c1CC=C(C)C,6.98 µM
8,O=C(Nc1ccc(C(F)(F)F)cc1)N1C[C@@H]2N[C@H](C1)C2c1ccc(-c2ccccc2)cc1 (stereo partly specified),8.09 µM
9,C[n+]1c(-c2ccccc2)cc2c(=Cc3ccc([N+](=O)[O-])cc3)c3ccccc3n21,9.92 µM
10,O=C1C=CC2C3C(=O)N(c4ccccc4)C(=O)C3C1N2Cc1ccccc1 (stereo unspecified),8.98 µM
11,C[C@H]1CN([C@@H](C)CO)C(=O)c2c(c3ccccc3n2C)-c2ccccc2CO[C@@H]1CN(C)C(=O)Nc1ccccc1C(F)(F)F,> 20 µM (inactive)
12,COc1ccc2c(c1)c1ncn(Cc3ccccn3)c(=O)c1n2C,> 20 µM (inactive)
13,Cc1ccc2c(=O)c3ccccc3n(CCCN)c2c1C,2.79 µM
14,C[C@@H]1O[C@@H](O[C@H]2C[C@@H](O)[C@]3(CO)[C@H]4[C@H](O)C[C@]5(C)[C@@H](C6COC(=O)C6)CC[C@]5(O)[C@@H]4CC[C@]3(O)C2)[C@H](O)[C@H](O)[C@H]1O (stereo partly specified),1.87 µM
15,C[C@H](CO)N1C[C@H](C)[C@H](CN(C)S(=O)(=O)c2ccc([N+](=O)[O-])cc2)OCc2ccccc2-c2c(n(C)c3ccccc23)C1=O,> 20 µM (inactive)
16,C[C@H]1CN([C@@H](C)CO)C(=O)c2c(c3ccccc3n2C)-c2ccccc2CO[C@@H]1CN(C)S(=O)(=O)c1ccc([N+](=O)[O-])cc1,> 20 µM (inactive)
17,C[C@@H]1C[C@@H]([C@H](O)CC2CC(=O)NC(=O)C2)C(=O)[C@@H](C)C1,> 20 µM (inactive)
18,C[C@@H]1CN([C@@H](C)CO)C(=O)c2c(c3ccccc3n2C)-c2ccccc2CO[C@H]1CN(C)Cc1ccccc1,9.77 µM
19,Cn1cnc(CCNC(=O)C[C@@H]2CC[C@@H]3[C@H](COC[C@@H](O)CN3C(=O)Nc3ccc(C(F)(F)F)cc3)O2)c1,> 20 µM (inactive)
20,Clc1ccc(CSC(Cn2ccnc2)c2ccc(Cl)cc2Cl)cc1 (stereo unspecified),> 20 µM (inactive)
21,C[C@@H]1CN([C@@H](C)CO)C(=O)c2c(c3ccccc3n2C)-c2ccccc2CO[C@H]1CN(C)Cc1cccc(C(F)(F)F)c1,3.94 µM
22,COc1ccc(S(=O)(=O)Nc2ccc3c(c2)C(=O)N([C@H](C)CO)C[C@@H](C)[C@@H](CN(C)Cc2ccc(C(F)(F)F)cc2)OCCCC[C@H](C)O3)cc1,> 20 µM (inactive)
23,CC(=O)O[C@H]1C[C@H](O[C@H]2[C@@H](O)C[C@H](O[C@H]3[C@@H](O)C[C@H](O[C@H]4CC[C@@]5(C)C(CCC6C5C[C@@H](O)[C@]5(C)[C@@H](C7=CC(=O)OC7)CC[C@]65O)C4)O[C@@H]3C)O[C@@H]2C)O[C@H](C)[C@H]1O[C@@H]1O[C@H](CO)[C@@H](O)[C@H](O)[C@H]1O (stereo partly specified),0.758 µM
24,NCCOc1ccc(C23CC4CC(CC(C4)C2)C3)cc1,4.9 µM
25,C[C@H]1CN([C@@H](C)CO)C(=O)c2c(c3ccccc3n2C)-c2ccccc2CO[C@H]1CN(C)C(=O)Nc1cccc(C(F)(F)F)c1,0.878 µM
26,C[C@@H]1CN([C@@H](C)CO)C(=O)c2c(c3ccccc3n2C)-c2ccccc2CO[C@H]1CN(C)C(=O)Nc1cccc(C(F)(F)F)c1,1.4 µM

row,Compound,AC50
1,CC(C)C#Cc1ccc([C@H]2[C@@H](CO)N(C(=O)c3ccccn3)[C@H]2C#N)cc1,> 20 µM (inactive)
2,COCCn1c(C)cc(C(=O)COC(=O)c2ccc(Cl)c(S(N)(=O)=O)c2)c1C,3.01 µM
3,CCCNC(=O)N1[C@@H](C#N)[C@H](c2ccc(-c3cccc(OC)c3)cc2)[C@@H]1CO,> 20 µM (inactive)
4,COc1ccc(S(=O)(=O)Nc2ccc3c(c2)C(=O)N([C@H](C)CO)C[C@H](C)[C@@H](CN(C)Cc2ccc(C(F)(F)F)cc2)OCCCC[C@@H](C)O3)cc1,10.5 µM
5,Cc1cnc(NC(=O)c2ccccn2)s1,7.7 µM
6,COc1ccc(/C=N/Nc2ncccc2[N+](=O)[O-])c(OC)c1,5.79 µM
7,Clc1ccc(C(Cn2ccnc2)OCc2ccsc2Cl)c(Cl)c1 (stereo unspecified),> 20 µM (inactive)
8,Cc1cc(C(=O)COC(=O)c2ccco2)c(C)n1Cc1ccco1,> 20 µM (inactive)
9,CC(C)c1c(O)ccc2c1CCC1C(C)(C)CCC[C@]21C (stereo partly specified),6.74 µM
10,CCN(CC)C(=O)c1ccc(NC(=O)Nc2ccccc2F)cc1,3.45 µM
11,C[C@@H]1CN([C@@H](C)CO)C(=O)Cc2cc(NC(=O)Cc3cn(C)c4ccccc34)ccc2O[C@H]1CN(C)Cc1ccc(C(F)(F)F)cc1,> 20 µM (inactive)
12,CC(=O)OCC12CC(OC(=O)CC(C)C)C(C)=CC1OC1C(O)C(OC(C)=O)C2(C)C12CO2 (stereo unspecified),3.67 µM
13,CC(C)(C)OC(=O)CC(S(=O)(=O)c1ccccc1)S(=O)(=O)c1ccccc1,6.37 µM
14,COc1ccc(S(=O)(=O)Nc2ccc3c(c2)C(=O)N([C@@H](C)CO)C[C@@H](C)[C@@H](CN(C)Cc2ccc(C(F)(F)F)cc2)OCCCC[C@H](C)O3)cc1,> 20 µM (inactive)
15,C=CC[n+]1c(/C=C2\C=Cc3cc(C)ccc3N2CC)ccc2ccccc21,7.46 µM
16,COc1cccc2c1C(=O)c1c(O)c3c(c(O)c1C2=O)C[C@@](O)(C(C)=O)C[C@@H]3OC1CC(N)C(O)C(C)O1 (stereo partly specified),2.72 µM
17,CC(C)[C@H](CO)Nc1nc(Nc2cccc(Cl)c2)c2ncn(C(C)C)c2n1,2.86 µM
18,Clc1ccc(COC(Cn2ccnc2)c2ccc(Cl)cc2Cl)c(Cl)c1 (stereo unspecified),8.13 µM
19,O=C(Nc1ccccn1)c1ccc(-c2ccccc2)cc1,> 20 µM (inactive)
20,COc1ccc(/C=C2/CCC(CN3CCOCC3)C2=O)cc1 (stereo unspecified),7.4 µM
21,Cc1noc(C)c1S(=O)(=O)Nc1ccc2c(c1)C(=O)N([C@@H](C)CO)C[C@H](C)[C@@H](CN(C)C(=O)Nc1cccc3ccccc13)OCCCC[C@H](C)O2,> 20 µM (inactive)
22,O=C(Nc1cccc(N2C(=O)C=CC2=O)c1)c1cccs1,2.26 µM
23,O=C1NC2C(=CC(O)C(O)C2O)c2cc3c(c(O)c21)OCO3 (stereo unspecified),10 µM
24,COC(=O)C1=C(C)NC(C)=C(C(=O)OCCCN2CCC(c3ccccc3)(c3ccccc3)CC2)[C@H]1c1cccc([N+](=O)[O-])c1,> 20 µM (inactive)
